From patent US7612064B2, “Sulfopyrroles” (Takeda Pharmaceutical Company Limited, priority 2003, dated 2009)

Experiments:
HeLa = assay: MTS proliferation assay; format: cell-based, human; details: 72 h
Summary of the method: (§1)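 Cells were exposed for 72 h under culture conditions to test compounds at final concentrations of 10, 3, 1 and 0.3 μM, added in complete medium with at most 5% DMSO. MTS reagent was then added for a further 3 h, and absorbance was read at 492 nm.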

Jurkat = assay: MTS proliferation assay; format: cell-based, human; details: 72 h
Summary of the method: as §1

Jily = assay: MTS proliferation assay; format: cell-based; details: 72 h
Summary of the method: as §1

MRC5 = assay: MTS proliferation assay; format: cell-based; details: MRC5, 72 h
Summary of the method: as §1

[1] = Hoechst 33342 nuclear staining; format: cell-based; details: for Hoechst 33342 nuclear staining score, H460: H460 cells; for Hoechst 33342 nuclear staining score, HeLa: HeLa cells; for Hoechst 33342 nuclear staining score, Jily: Jily cells; for Hoechst 33342 nuclear staining score, Jurkat: Jurkat cells; for Hoechst 33342 nuclear staining score, MRC5: MRC5 cells;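 for all read-outs here: apoptotic nuclei scored 0 none 1 weak under 50% of cells 2 strong over 50% of cells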
Summary of the method: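 After a further 30 min incubation, plates were inspected on a standard inverted fluorescence microscope. The fraction of apoptotic nuclei and other apoptosis-specific morphology were scored as 0 for no activity, 1 for weak activity in less than 50% of the cells, and 2 for strong activity in more than 50% of the cells.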

Row | Compound | IC50 (Jily) [nM] | Hoechst 33342 nuclear staining score, H460 ([1]; conc 0.1) | Hoechst 33342 nuclear staining score, H460 ([1]; conc 0.3) | Hoechst 33342 nuclear staining score, H460 ([1]; conc 1) | Hoechst 33342 nuclear staining score, H460 ([1]; conc 3) | Hoechst 33342 nuclear staining score, HeLa ([1]; conc 0.1) | Hoechst 33342 nuclear staining score, HeLa ([1]; conc 0.3) | Hoechst 33342 nuclear staining score, HeLa ([1]; conc 1) | Hoechst 33342 nuclear staining score, HeLa ([1]; conc 3) | Hoechst 33342 nuclear staining score, Jily ([1]; conc 0.1) | Hoechst 33342 nuclear staining score, Jily ([1]; conc 0.3) | Hoechst 33342 nuclear staining score, Jily ([1]; conc 1) | Hoechst 33342 nuclear staining score, Jily ([1]; conc 3) | Hoechst 33342 nuclear staining score, Jurkat ([1]; conc 0.1) | Hoechst 33342 nuclear staining score, Jurkat ([1]; conc 0.3) | Hoechst 33342 nuclear staining score, Jurkat ([1]; conc 1) | Hoechst 33342 nuclear staining score, Jurkat ([1]; conc 3) | Hoechst 33342 nuclear staining score, MRC5 ([1]; conc 0.1) | Hoechst 33342 nuclear staining score, MRC5 ([1]; conc 0.3) | Hoechst 33342 nuclear staining score, MRC5 ([1]; conc 1) | further results
1 | COCCCNC(=O)c1cncc(-c2cc(-c3cc(OC)c(OC)c(OC)c3)n(S(=O)(=O)c3ccc(C)cc3)c2)c1.Cl [Example 65] | < 1000 | 0 | 0 | 2 (strong activity comprising more than 50% of the cells) | 2 (strong activity comprising more than 50% of the cells) | 0 | 0 | 0 | 2 (strong activity comprising more than 50% of the cells) | 0 | 0 | 2 (strong activity comprising more than 50% of the cells) | 2 (strong activity comprising more than 50% of the cells) | 0 | 0 | 2 (strong activity comprising more than 50% of the cells) | 2 (strong activity comprising more than 50% of the cells) | 0 | 0 | 2 (strong activity comprising more than 50% of the cells) | IC50 (HeLa): < 1000 nM; IC50 (Jurkat): < 1000 nM; IC50 (MRC5): < 1000 nM; Hoechst 33342 nuclear staining score, MRC5 ([1]; conc 3): 2 (strong activity comprising more than 50% of the cells); Hoechst 33342 nuclear staining score, PBLs ([1]; conc 0.1): 0; Hoechst 33342 nuclear staining score, PBLs ([1]; conc 0.3): 0; Hoechst 33342 nuclear staining score, PBLs ([1]; conc 1): 0; Hoechst 33342 nuclear staining score, PBLs ([1]; conc 3): 0
2 | COc1cc(-c2cc(CNc3ccc(-c4nnn[nH]4)cc3)cn2S(=O)(=O)c2ccc(C)cc2)cc(OC)c1OC [Example 73] | > 1000 | 0 | 0 | 0 | 2 (strong activity comprising more than 50% of the cells) | 0 | 0 | 0 | 0 | 0 | 0 | 0 | 1 (weak activity comprising less than 50% of the cells) | 0 | 0 | 0 | 2 (strong activity comprising more than 50% of the cells) | 0 | 0 | 0 | IC50 (HeLa): > 1000 nM; IC50 (Jurkat): > 1000 nM; IC50 (MRC5): > 1000 nM; Hoechst 33342 nuclear staining score, MRC5 ([1]; conc 3): 0; Hoechst 33342 nuclear staining score, PBLs ([1]; conc 0.1): 0; Hoechst 33342 nuclear staining score, PBLs ([1]; conc 0.3): 0; Hoechst 33342 nuclear staining score, PBLs ([1]; conc 1): 0; Hoechst 33342 nuclear staining score, PBLs ([1]; conc 3): 0
3 | COc1ccc(S(=O)(=O)n2cc(-c3cccnc3)cc2-c2cc(OC)c(OC)c(OC)c2)cc1 [Example 76, 1-p-Methoxyphenylsulfonyl-4-(3-pyridyl)-2-(3,4,5-trimethoxyphenyl)-pyrrole] | < 200 | 2 (strong activity comprising more than 50% of the cells) | 2 (strong activity comprising more than 50% of the cells) | 2 (strong activity comprising more than 50% of the cells) | 2 (strong activity comprising more than 50% of the cells) | 1 (weak activity comprising less than 50% of the cells) | 2 (strong activity comprising more than 50% of the cells) | 2 (strong activity comprising more than 50% of the cells) | 2 (strong activity comprising more than 50% of the cells) | 2 (strong activity comprising more than 50% of the cells) | 2 (strong activity comprising more than 50% of the cells) | 2 (strong activity comprising more than 50% of the cells) | 2 (strong activity comprising more than 50% of the cells) | 2 (strong activity comprising more than 50% of the cells) | 2 (strong activity comprising more than 50% of the cells) | 2 (strong activity comprising more than 50% of the cells) | 2 (strong activity comprising more than 50% of the cells) | 1 (weak activity comprising less than 50% of the cells) | 1 (weak activity comprising less than 50% of the cells) | 1 (weak activity comprising less than 50% of the cells) | IC50 (HeLa; Homo sapiens): < 200 nM; IC50 (Jurkat; Homo sapiens): < 200 nM; IC50 (MRC5; Homo sapiens): < 200 nM; Hoechst 33342 nuclear staining score, MRC5 ([1]; conc 3): 1 (weak activity comprising less than 50% of the cells); Hoechst 33342 nuclear staining score, PBLs ([1]; conc 0.1): 0; Hoechst 33342 nuclear staining score, PBLs ([1]; conc 0.3): 0; Hoechst 33342 nuclear staining score, PBLs ([1]; conc 1): 0; Hoechst 33342 nuclear staining score, PBLs ([1]; conc 3): 0
4 | COc1cc(-c2cc(-c3cccnc3)cn2S(=O)(=O)c2ccccc2)cc(OC)c1OC [Example 79] | > 1000 | 0 | 0 | 0 | 0 | 0 | 0 | 0 | 0 | 0 | 0 | 0 | 0 | 0 | 0 | 0 | 0 | 0 | 0 | 0 | IC50 (HeLa): > 1000 nM; IC50 (Jurkat): < 1000 nM; IC50 (MRC5): > 1000 nM; Hoechst 33342 nuclear staining score, MRC5 ([1]; conc 3): 0; Hoechst 33342 nuclear staining score, PBLs ([1]; conc 0.1): 0; Hoechst 33342 nuclear staining score, PBLs ([1]; conc 0.3): 0; Hoechst 33342 nuclear staining score, PBLs ([1]; conc 1): 0; Hoechst 33342 nuclear staining score, PBLs ([1]; conc 3): 0
